From PubChem BioAssay (NCI)
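48-hour exposure; five concentrations; linearly interpolated endpoints. At the GI50, growth is halved. TGI: total growth inhibition.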

Experiments:
Assay in all cases: NCI anticancer screen, dose series, 48 h
786-0 renal = system: 786-0 renal
A498 renal = system: A498 renal
A549 NSCLC = system: A549 NSCLC
ACHN renal = system: ACHN renal
BT-549 breast = system: BT-549 breast
CCRF-CEM leukemia = system: CCRF-CEM leukemia
COLO 205 colon = system: COLO 205 colon
DU-145 prostate = system: DU-145 prostate
EKVX NSCLC = system: EKVX NSCLC
HCC-2998 colon = system: HCC-2998 colon
HCT-116 colon = system: HCT-116 colon
HCT-15 colon = system: HCT-15 colon
HL-60(TB) leukemia = system: HL-60(TB) leukemia
HOP-62 NSCLC = system: HOP-62 NSCLC
HOP-92 NSCLC = system: HOP-92 NSCLC
HS 578T breast = system: HS 578T breast
HT29 colon = system: HT29 colon
IGROV1 ovarian = system: IGROV1 ovarian
K-562 leukemia = system: K-562 leukemia
KM12 colon = system: KM12 colon
LOX IMVI melanoma = system: LOX IMVI melanoma
M14 melanoma = system: M14 melanoma
MALME-3M melanoma = system: MALME-3M melanoma
MCF7 breast = system: MCF7 breast
MDA-MB-231 breast = system: MDA-MB-231 breast
MDA-MB-435 = system: MDA-MB-435
MOLT-4 leukemia = system: MOLT-4 leukemia
NCI-H226 lung = system: NCI-H226 lung
NCI-H23 lung = system: NCI-H23 lung
NCI-H460 lung = system: NCI-H460 lung
NCI-H522 lung = system: NCI-H522 lung
NCI/ADR-RES ovarian = system: NCI/ADR-RES ovarian
OVCAR-3 ovarian = system: OVCAR-3 ovarian
OVCAR-4 ovarian = system: OVCAR-4 ovarian
OVCAR-5 ovarian = system: OVCAR-5 ovarian
OVCAR-8 ovarian = system: OVCAR-8 ovarian
PC-3 prostate = system: PC-3 prostate
RPMI-8226 leukemia = system: RPMI-8226 leukemia
RXF 393 renal = system: RXF 393 renal
SF-268 CNS = system: SF-268 CNS
SF-295 CNS = system: SF-295 CNS
SF-539 CNS = system: SF-539 CNS
SK-MEL-2 melanoma = system: SK-MEL-2 melanoma
SK-MEL-28 melanoma = system: SK-MEL-28 melanoma
SK-MEL-5 melanoma = system: SK-MEL-5 melanoma
SK-OV-3 ovarian = system: SK-OV-3 ovarian
SN12C renal = system: SN12C renal
SNB-19 CNS = system: SNB-19 CNS
SNB-75 CNS = system: SNB-75 CNS
SR leukemia = system: SR leukemia
SW-620 colon = system: SW-620 colon
T-47D breast = system: T-47D breast
U251 CNS = system: U251 CNS
UACC-257 melanoma = system: UACC-257 melanoma
UACC-62 melanoma = system: UACC-62 melanoma
UO-31 renal = system: UO-31 renal

With `Cn1cc(-c2ccc(-c3cncc(Cl)c3N3CCC4(CCNC4=O)CC3)cc2)cn1` as the compound, how does the GI50 (786-0 renal) read?
Its GI50 is 14.6 µM.

And the TGI (786-0 renal)?
The TGI was over 100 µM.

And the GI50 (A498 renal)?
Its GI50 is 14.1 µM.

What about the TGI (A498 renal) of the same compound?
Its TGI is over 100 µM.

And the GI50 (A549 NSCLC)?
The GI50 was 29 µM.

What about the TGI (A549 NSCLC) of the same compound?
Its TGI is over 100 µM.

What about the GI50 (ACHN renal) of the same compound?
Its GI50 is 23 µM.

And the TGI (ACHN renal)?
The TGI was over 100 µM.

What about the GI50 (BT-549 breast) of the same compound?
The GI50 was 26 µM.

And the TGI (BT-549 breast)?
The TGI was over 100 µM.

What about the GI50 (CCRF-CEM leukemia) of the same compound?
The GI50 was 44.5 µM.

And the TGI (CCRF-CEM leukemia)?
The TGI was over 100 µM.

What about the GI50 (COLO 205 colon) of the same compound?
Its GI50 is 10.6 µM.

And the TGI (COLO 205 colon)?
Its TGI is over 100 µM.

What about the GI50 (DU-145 prostate) of the same compound?
The GI50 was 50.3 µM.

And the TGI (DU-145 prostate)?
The TGI was over 100 µM.

What about the GI50 (EKVX NSCLC) of the same compound?
The GI50 was 51.9 µM.

What about the TGI (EKVX NSCLC) of the same compound?
The TGI was over 100 µM.

What about the GI50 (HCC-2998 colon) of the same compound?
Its GI50 is over 100 µM.

And the TGI (HCC-2998 colon)?
The TGI was over 100 µM.

And the GI50 (HCT-116 colon)?
Its GI50 is 24.3 µM.

What about the TGI (HCT-116 colon) of the same compound?
The TGI was over 100 µM.

What about the GI50 (HCT-15 colon) of the same compound?
Its GI50 is 40.1 µM.

What about the TGI (HCT-15 colon) of the same compound?
The TGI was over 100 µM.

What about the GI50 (HL-60(TB) leukemia) of the same compound?
Its GI50 is 20.4 µM.

And the TGI (HL-60(TB) leukemia)?
The TGI was 55.5 µM.

And the GI50 (HOP-62 NSCLC)?
Its GI50 is 39.6 µM.

What about the TGI (HOP-62 NSCLC) of the same compound?
The TGI was over 100 µM.

What about the GI50 (HOP-92 NSCLC) of the same compound?
Its GI50 is over 100 µM.

And the TGI (HOP-92 NSCLC)?
Its TGI is over 100 µM.

And the GI50 (HS 578T breast)?
Its GI50 is 80.1 µM.

What about the TGI (HS 578T breast) of the same compound?
The TGI was over 100 µM.

What about the GI50 (HT29 colon) of the same compound?
The GI50 was 16.9 µM.

What about the TGI (HT29 colon) of the same compound?
Its TGI is over 100 µM.

What about the GI50 (IGROV1 ovarian) of the same compound?
Its GI50 is 68 µM.

And the TGI (IGROV1 ovarian)?
Its TGI is over 100 µM.

What about the GI50 (K-562 leukemia) of the same compound?
Its GI50 is 26.9 µM.

What about the TGI (K-562 leukemia) of the same compound?
Its TGI is over 100 µM.

What about the GI50 (KM12 colon) of the same compound?
The GI50 was 33.3 µM.

And the TGI (KM12 colon)?
Its TGI is over 100 µM.

What about the GI50 (LOX IMVI melanoma) of the same compound?
Its GI50 is 77.1 µM.

And the TGI (LOX IMVI melanoma)?
Its TGI is over 100 µM.

And the GI50 (M14 melanoma)?
The GI50 was 76 µM.

And the TGI (M14 melanoma)?
Its TGI is over 100 µM.

What about the GI50 (MALME-3M melanoma) of the same compound?
The GI50 was 66.6 µM.

What about the TGI (MALME-3M melanoma) of the same compound?
The TGI was over 100 µM.

What about the GI50 (MCF7 breast) of the same compound?
Its GI50 is 38.5 µM.

What about the TGI (MCF7 breast) of the same compound?
The TGI was over 100 µM.

What about the GI50 (MDA-MB-231 breast) of the same compound?
Its GI50 is over 100 µM.

And the TGI (MDA-MB-231 breast)?
Its TGI is over 100 µM.

And the GI50 (MDA-MB-435)?
The GI50 was 38.7 µM.

And the TGI (MDA-MB-435)?
Its TGI is over 100 µM.

And the GI50 (MOLT-4 leukemia)?
The GI50 was 15.5 µM.

What about the TGI (MOLT-4 leukemia) of the same compound?
The TGI was over 100 µM.

What about the GI50 (NCI-H226 lung) of the same compound?
Its GI50 is 65.5 µM.

And the TGI (NCI-H226 lung)?
Its TGI is over 100 µM.

And the GI50 (NCI-H23 lung)?
The GI50 was over 100 µM.

And the TGI (NCI-H23 lung)?
The TGI was over 100 µM.

And the GI50 (NCI-H460 lung)?
Its GI50 is 69.1 µM.

And the TGI (NCI-H460 lung)?
Its TGI is over 100 µM.

What about the GI50 (NCI-H522 lung) of the same compound?
Its GI50 is 26.4 µM.

What about the TGI (NCI-H522 lung) of the same compound?
The TGI was over 100 µM.

What about the GI50 (NCI/ADR-RES ovarian) of the same compound?
The GI50 was 45.3 µM.

What about the TGI (NCI/ADR-RES ovarian) of the same compound?
The TGI was over 100 µM.

What about the GI50 (OVCAR-3 ovarian) of the same compound?
The GI50 was 34.3 µM.

And the TGI (OVCAR-3 ovarian)?
The TGI was over 100 µM.

And the GI50 (OVCAR-4 ovarian)?
The GI50 was 65.1 µM.

What about the TGI (OVCAR-4 ovarian) of the same compound?
Its TGI is over 100 µM.

What about the GI50 (OVCAR-5 ovarian) of the same compound?
The GI50 was over 100 µM.

And the TGI (OVCAR-5 ovarian)?
The TGI was over 100 µM.

What about the GI50 (OVCAR-8 ovarian) of the same compound?
Its GI50 is 29.4 µM.

And the TGI (OVCAR-8 ovarian)?
Its TGI is over 100 µM.

What about the GI50 (PC-3 prostate) of the same compound?
The GI50 was 47.3 µM.

And the TGI (PC-3 prostate)?
Its TGI is over 100 µM.

And the GI50 (RPMI-8226 leukemia)?
The GI50 was 17 µM.

What about the TGI (RPMI-8226 leukemia) of the same compound?
The TGI was 95.3 µM.

What about the GI50 (RXF 393 renal) of the same compound?
The GI50 was 18.2 µM.

And the TGI (RXF 393 renal)?
Its TGI is over 100 µM.

What about the GI50 (SF-268 CNS) of the same compound?
The GI50 was 61.2 µM.

What about the TGI (SF-268 CNS) of the same compound?
Its TGI is over 100 µM.

What about the GI50 (SF-295 CNS) of the same compound?
The GI50 was 66.7 µM.

What about the TGI (SF-295 CNS) of the same compound?
The TGI was over 100 µM.

And the GI50 (SF-539 CNS)?
The GI50 was 27.8 µM.

What about the TGI (SF-539 CNS) of the same compound?
Its TGI is over 100 µM.

What about the GI50 (SK-MEL-2 melanoma) of the same compound?
The GI50 was 24.7 µM.

And the TGI (SK-MEL-2 melanoma)?
Its TGI is over 100 µM.

And the GI50 (SK-MEL-28 melanoma)?
Its GI50 is 79.2 µM.

What about the TGI (SK-MEL-28 melanoma) of the same compound?
Its TGI is over 100 µM.

What about the GI50 (SK-MEL-5 melanoma) of the same compound?
The GI50 was 40.3 µM.

What about the TGI (SK-MEL-5 melanoma) of the same compound?
The TGI was over 100 µM.

And the GI50 (SK-OV-3 ovarian)?
Its GI50 is 41.6 µM.

And the TGI (SK-OV-3 ovarian)?
The TGI was over 100 µM.

And the GI50 (SN12C renal)?
Its GI50 is 63.2 µM.

What about the TGI (SN12C renal) of the same compound?
Its TGI is over 100 µM.

And the GI50 (SNB-19 CNS)?
The GI50 was over 100 µM.

And the TGI (SNB-19 CNS)?
Its TGI is over 100 µM.

What about the GI50 (SNB-75 CNS) of the same compound?
The GI50 was 34.8 µM.

And the TGI (SNB-75 CNS)?
Its TGI is over 100 µM.

What about the GI50 (SR leukemia) of the same compound?
Its GI50 is 1.68 µM.

What about the TGI (SR leukemia) of the same compound?
Its TGI is 21.2 µM.

What about the GI50 (SW-620 colon) of the same compound?
Its GI50 is 47.7 µM.

What about the TGI (SW-620 colon) of the same compound?
Its TGI is over 100 µM.

And the GI50 (T-47D breast)?
The GI50 was 25.9 µM.

And the TGI (T-47D breast)?
Its TGI is over 100 µM.

What about the GI50 (U251 CNS) of the same compound?
The GI50 was 51.3 µM.

And the TGI (U251 CNS)?
Its TGI is over 100 µM.

What about the GI50 (UACC-257 melanoma) of the same compound?
The GI50 was over 100 µM.

And the TGI (UACC-257 melanoma)?
The TGI was over 100 µM.

What about the GI50 (UACC-62 melanoma) of the same compound?
The GI50 was 60.7 µM.

What about the TGI (UACC-62 melanoma) of the same compound?
The TGI was over 100 µM.

And the GI50 (UO-31 renal)?
Its GI50 is 29 µM.

What about the TGI (UO-31 renal) of the same compound?
Its TGI is over 100 µM.
